Where only a bound is given, the exact number is not on record here.

As a reminder, the IC50 is the concentration needed to halve the response being measured. A lower IC50 goes with higher potency.

Assay [1] relates to SH-SY5Y human neuroblastoma cells. Nature of the assay: Neurite lengths in NGF-treated SH-SY5Y neuroblastoma cells. The settings on record: NGF 10 ng/ml alone; SH-SY5Y cells at 168 hr; mean. It counts as cell-based. As for the experimental part:
SH-SY5Y human neuroblastoma cells were maintained in DMEM medium (GIBCO) supplemented with 10% fetal calf serum (SIGMA), 50 I.U./ml of penicillin, and 50μg/ml streptomycin (GIBCO) at 37° C. in 7% CO2. Cells were plated in six-well plates at 15,000 cells/well and treated with 0.4 μM aphidicolin (SIGMA). […] Medium was changed at 96 h and replaced with fresh medium for an additional 72 h (total time, 168 h). Duplicate wells were run in all experiments and the data were averaged for each treatment group. Analysis of neurite lengths in SH-SY5Y neuroblastoma cells:
For analysis of process length, cells (20 fields per well) were randomly photographed at 168 h. Neurite lengths were measured on photographic prints using a Houston Instrument HI-PAD digitizing tablet connected to an IBM XT computer with appropriate software (Bioquant IV, R & M Biometrics, Nashville, Tenn.); only those processes greater than two-fold of the cell body length were measured. Data from identically treated wells were not different and were therefore combined.

Assay [2] concerns Mixed lymphocyte reaction (MLR). Nature of the assay: Mixed lymphocyte reaction (MLR). The settings on record: for IC50: Lymphocyte, in vitro. It counts as cell-based. As for the experimental part: MLR test was performed according to a similar manner to that of U.S. Pat. No. 4,929,611
Assay [3] has as its system Embryonic hippocampal neurons. Nature of the assay: Neurite (axon) lengths in primary embryonic hippocampal neuron cultures. Format: cell-based, rat. The note with it: 10 nM, primary hippocampal cell cultures in rats at 72 hr, mean. On the procedure:
Embryonic hippocampal neurons were obtained from rat pups on embryonic day 18.5 (“El8.5”), according to Banker and Cowan (Brain Research, 1977, 126: 397425). Briefly, the hippocampal regions were removed, minced, and incubated in 100 I.U. papain at 37° C. for 45 min, and the cells were resuspended in complete neuronal medium: minimal essential medium without L-glutamine (GIBCO, Grand Island, NY), 1.5 ml/100 ml medium of high glucose minimal essential medium (GIBCO), 0.1 ml/100 ml medium of serum extender (Hito +Tm; Collaborative Research Inc, Lexington, Mass.), glutamine (GIBCO), 5% fetal calf serum (GIBCO). Cells were seeded onto coverslips (500 cells/coverslip) coated with poly-L-lysine. The coverslips were inverted onto dishes that had been precoated with a monolayer of cortical astrocytes. Hippocampal neurons (identified by their characteristic polarity and dendrites) were examined daily and randomly photographed (9-12 frames/coverslip) at 72 h. Axon (defined as the longest process) lengths were measured on photographic prints using a Houston Instrument HI-PAD digitizing tablet connected to an IBM XT computer with appropriate software (Bioquant IV, R & M Biometrics, Nashville, TN); only processes more than three-fold of the cell body length were measured. Data from identically treated coverslips (three or four per group) were not different and therefore were combined.

For the next assay, the system named is sciatic nerve crush. Nature of the assay: Functional recovery in the rat sciatic nerve crush model (semi-quantitative behavioral score). Format: in vivo. The note with it: scale 0-4. On the procedure:
Nine 6-week-old male Sprague-Dawley rats were anesthetized with 2% halothane, the right sciatic nerve was exposed, and the nerve was crushed twice (for a total of 60 s using a No.7 Dumont jeweler's forceps) at the level of the hip. The crush site was marked by tying a sterile 9-0 suture through the epineurial sheath.
Compound (Ia) was dissolved in vehicle comprising 30% dimethylsulfoxide (DMSO):70% saline. Three axotomized rats received subcutaneous daily injections either Compound (Ia) (1 or 5 mg/kg) or an equivalent volume of vehicle (30% DMSO in saline) (5ml/kg)
Animals were examined daily until the day of perfusion (18 days). The following semi-quantitative scale was used to evaluate the functional recovery of the animals:
0: paralysis with the foot turned-out upon walking and the toes curved;
1: ability to right the foot and move the toes;
2: ability to constantly walk on the foot;
For the behavioral analysis, mean values for recovery of function were compared using one-way ANOVA followed by the Newman-Keuls multiple comparisons test for comparison of individual values. For the morphometric analysis, mean values for the number of axons were compared using one-way ANOVA followed by the Newman Keuls multiple comparisons test for comparison of individual values.

The target in the next assay is FKBP12 (Homo sapiens, UniProt P62942). Nature of the assay: Binding assay to FKBP12. The settings on record: in vitro. As for the experimental part: The binding assay was performed according to a similar manner to that of Tamura, K., et al (Biochemical arid Biophysical Research Communications, Vol. 202, No. 1, 437-499, 1994).
Chain of FKBP12 (P62942 whole entry, species assumed): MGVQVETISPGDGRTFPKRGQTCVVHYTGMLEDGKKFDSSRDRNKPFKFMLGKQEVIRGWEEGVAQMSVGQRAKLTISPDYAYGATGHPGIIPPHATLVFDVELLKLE

As to “NGF: nerve growth factor, used at 10 ng/ml to induce process outgrowth”, in assay [1], the “Neurite Lengths” value came to 198.8 ± 8.991 μm.

Regarding `C=CC[C@@H]1/C=C(\C)C[C@H](C)C[C@H](OC)[C@H]2O[C@@](O)(C(=O)C(=O)N3CCCC[C@H]3C(=O)O[C@H](/C(C)=C/[C@@H]3CC[C@@H](O)[C@H](OC)C3)[C@H](C)[C@@H](O)CC1=O)[C@H](C)C[C@@H]2OC` [Tacrolimus, tacrolimus], in assay [2], the concentration for half-maximal inhibition (IC50) is < 2 nM. Also, the entries for the “Neurite Lengths” value in assay [3] and in assay [3] (listed as tacrolimus) were 423.4 ± 19.50 μm and “no significant difference”, respectively.

On to `CO[C@H]1C[C@@H](C)C/C(C)=C/C(CC(C)=O)C(=O)C[C@H](O)[C@@H](C)[C@@H](/C(C)=C/[C@@H]2CC[C@@H](O)[C@H](OC)C2)OC(=O)[C@@H]2CCCCN2C(=O)C(=O)[C@]2(O)OC1[C@@H](OC)C[C@H]2C` (stereo partly shown) [Compound (Ia)], for which the 50% inhibitory concentration (IC50) in assay [2] is > 100 nM; on FKBP12, < 5 nM. In assay [2] (conclusion in words from MLR result), the immunosuppressive activity result was “does not have immunosuppressive activity”. Further, the “Functional Score” value in the assay on sciatic nerve crush (1 mg/kg s.c. daily, Day 15) is 2.58 ± 0.17; in the assay on sciatic nerve crush (1 mg/kg s.c. daily, Day 16) it was 2.83 ± 0.17; with sciatic nerve crush (1 mg/kg s.c. daily, Day 17), 3.08 ± 0.22; with sciatic nerve crush (5 mg/kg s.c. daily, Day 15), 3.17 ± 0.08; in the assay on sciatic nerve crush (5 mg/kg s.c. daily, Day 16), 3.50 ± 0.00; in the assay on sciatic nerve crush (5 mg/kg s.c. daily, Day 17), 3.50 ± 0.00.

The values above are taken from patent US20040077676A1 (priority 2003, published 2004).
